# Source: the supplement of paper PMC11208160
# Assay: recombinant UMI read abundance after kanamycin selection (control-corrected) (log10(CPM+1)); higher = more efficient recombination; extreme values may be limits of the assay; sequences stand for … in AGTGCAGAGAAAATCGGCCAGTTTTCTCTGCCTGCAGTCCGCATGCCGTGGGACCCCTTGGGTTCTAACCTGTTGCCTAGATTTATGCAGCGGACTGCCTTTCTCCCAAAGTGATAAACCGG…AGGTTGGTTTCACT; site = the 11-nt donor
# Outline: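 In Escherichia coli, a pool of donor and donor-binding-loop pairs, each with a 12-nt UMI, was tested for the IS621 bridge recombinase. Plating was on IPTG (0.07 mM) plus kanamycin, or without selection, in two replicates. Recombinant UMIs were amplified by PCR across the donor–target junction and sequenced, and counts were reported as log10(CPM+1) after averaging and control-derived scaling.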
# 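Note: IS621 bridge recombinase in Escherichia coli cells against a fixed T5 target plasmid.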
row,Sequence,recombinant UMI read abundance (log10)
1,TTTATTACATGGACCGGTTTTCCCGGTAATCCGTATTTGGT (site TTTATTACTAC),0.0132
2,TTTATTCCATGGACCGGTTTTCCCGGTAATCCGTATTTGAC (site TTTATTCCTGT),0
3,TTTCAGACATGGACCGGTTTTCCCGGTAATCCGTATTTGTT (site TTTCAGACTAA),0.004
4,TTTCCAACATGGACCGGTTTTCCCGGTAATCCGTATTTGAA (site TTTCCAACTTT),0.0166
5,TTTCCCGCATGGACCGGTTTTCCCGGTAATCCGTATTTGTC (site TTTCCCGCTGA),1.42
6,TTTCCGGCATGGACCGGTTTTCCCGGTAATCCGTATTTGCT (site TTTACGGCTAG),0.0335
7,TTTCCGGCATGGACCGGTTTTCCCGGTAATCCGTATTTGCT (site TTTCCGGCTAG),0.016
8,TTTCCGGCATGGACCGGTTTTCCCGGTAATCCGTATTTGCT (site TTTGCGGCTAG),0.00591
9,TTTCCGGCATGGACCGGTTTTCCCGGTAATCCGTATTTGCT (site TTTTCGGCTAG),0.0123
10,TTTCTAGCATGGACCGGTTTTCCCGGTAATCCGTATTTGAC (site TTTCTAGCTGT),0.582
11,TTTCTGTCATGGACCGGTTTTCCCGGTAATCCGTATTTGAA (site TTTCTGTCTTT),0.0118
12,TTTGCCTCATGGACCGGTTTTCCCGGTAATCCGTATTTGCC (site TTTGCCTCTGG),1.48
13,TTTGCGGCATGGACCGGTTTTCCCGGTAATCCGTATTTGAT (site TTTGCGGCTAA),0.015
14,TTTGCGGCATGGACCGGTTTTCCCGGTAATCCGTATTTGAT (site TTTGCGGCTAC),0.00828
15,TTTGCGGCATGGACCGGTTTTCCCGGTAATCCGTATTTGAT (site TTTGCGGCTAG),0
16,TTTGCGGCATGGACCGGTTTTCCCGGTAATCCGTATTTGAT (site TTTGCGGCTAT),0.414
17,TTTGCGGCATGGACCGGTTTTCCCGGTAATCCGTATTTGCT (site ATTGCGGCTAG),0.00696
18,TTTGCGGCATGGACCGGTTTTCCCGGTAATCCGTATTTGCT (site CTTGCGGCTAG),0.00458
19,TTTGCGGCATGGACCGGTTTTCCCGGTAATCCGTATTTGCT (site GTTGCGGCTAG),0.00615
20,TTTGCGGCATGGACCGGTTTTCCCGGTAATCCGTATTTGCT (site TATGCGGCTAG),0.00481
21,TTTGCGGCATGGACCGGTTTTCCCGGTAATCCGTATTTGCT (site TCTGCGGCTAG),0
22,TTTGCGGCATGGACCGGTTTTCCCGGTAATCCGTATTTGCT (site TGTGCGGCTAG),0.0128
23,TTTGCGGCATGGACCGGTTTTCCCGGTAATCCGTATTTGCT (site TTAGCGGCTAG),0.486
24,TTTGCGGCATGGACCGGTTTTCCCGGTAATCCGTATTTGCT (site TTCGCGGCTAG),0
25,TTTGCGGCATGGACCGGTTTTCCCGGTAATCCGTATTTGCT (site TTGGCGGCTAG),0.0258
26,TTTGCGGCATGGACCGGTTTTCCCGGTAATCCGTATTTGCT (site TTTACGGCTAG),0.658

row,Sequence,recombinant UMI read abundance (log10)
1,TTTGCGGCATGGACCGGTTTTCCCGGTAATCCGTATTTGCT (site TTTCCGGCTAG),0.0114
2,TTTGCGGCATGGACCGGTTTTCCCGGTAATCCGTATTTGCT (site TTTGAGGCTAG),0.00621
3,TTTGCGGCATGGACCGGTTTTCCCGGTAATCCGTATTTGCT (site TTTGCAGCTAG),0.0183
4,TTTGCGGCATGGACCGGTTTTCCCGGTAATCCGTATTTGCT (site TTTGCCGCTAG),0.00324
5,TTTGCGGCATGGACCGGTTTTCCCGGTAATCCGTATTTGCT (site TTTGCGACTAG),0
6,TTTGCGGCATGGACCGGTTTTCCCGGTAATCCGTATTTGCT (site TTTGCGCCTAG),0.00251
7,TTTGCGGCATGGACCGGTTTTCCCGGTAATCCGTATTTGCT (site TTTGCGGCTAA),0.0285
8,TTTGCGGCATGGACCGGTTTTCCCGGTAATCCGTATTTGCT (site TTTGCGGCTAC),0.0071
9,TTTGCGGCATGGACCGGTTTTCCCGGTAATCCGTATTTGCT (site TTTGCGGCTAG),0.75
10,TTTGCGGCATGGACCGGTTTTCCCGGTAATCCGTATTTGCT (site TTTGCGGCTAT),0.0119
11,TTTGCGGCATGGACCGGTTTTCCCGGTAATCCGTATTTGCT (site TTTGCGGCTCG),0.0133
12,TTTGCGGCATGGACCGGTTTTCCCGGTAATCCGTATTTGCT (site TTTGCGGCTGG),0
13,TTTGCGGCATGGACCGGTTTTCCCGGTAATCCGTATTTGCT (site TTTGCGGCTTG),0.00988
14,TTTGCGGCATGGACCGGTTTTCCCGGTAATCCGTATTTGCT (site TTTGCGTCTAG),0.00651
15,TTTGCGGCATGGACCGGTTTTCCCGGTAATCCGTATTTGCT (site TTTGCTGCTAG),0
16,TTTGCGGCATGGACCGGTTTTCCCGGTAATCCGTATTTGCT (site TTTGGGGCTAG),0.00746
17,TTTGCGGCATGGACCGGTTTTCCCGGTAATCCGTATTTGCT (site TTTGTGGCTAG),0.00957
18,TTTGCGGCATGGACCGGTTTTCCCGGTAATCCGTATTTGCT (site TTTTCGGCTAG),0.00374
19,TTTGGCACATGGACCGGTTTTCCCGGTAATCCGTATTTGGC (site TTTGGCACTGC),0.00668
20,TTTGGGGCATGGACCGGTTTTCCCGGTAATCCGTATTTGCT (site TTTGAGGCTAG),0.621
21,TTTGGGGCATGGACCGGTTTTCCCGGTAATCCGTATTTGCT (site TTTGCGGCTAG),0.00428
22,TTTGGGGCATGGACCGGTTTTCCCGGTAATCCGTATTTGCT (site TTTGGGGCTAG),1.61
23,TTTGGGGCATGGACCGGTTTTCCCGGTAATCCGTATTTGCT (site TTTGTGGCTAG),0.0107
24,TTTGTAGCATGGACCGGTTTTCCCGGTAATCCGTATTTGGA (site TTTGTAGCTTC),0.00646
25,TTTGTGTCATGGACCGGTTTTCCCGGTAATCCGTATTTGCG (site TTTGTGTCTCG),0.535
26,TTTGTTTCATGGACCGGTTTTCCCGGTAATCCGTATTTGTT (site TTTGTTTCTAA),0
